According to patent US10669242B2 (priority 2016, dated 2020):
pIC50: −log10 of the molar value.

What follows are compounds tested against T1, recombinant glucosyltransferase domain of C. difficile Toxin B/TcdB (Clostridioides difficile, UniProt P18177) (assay: biochemical).
T1 construct: 6-His (C); purchased R&D Systems 6246-GT
T1 sequence (P18177 1-543): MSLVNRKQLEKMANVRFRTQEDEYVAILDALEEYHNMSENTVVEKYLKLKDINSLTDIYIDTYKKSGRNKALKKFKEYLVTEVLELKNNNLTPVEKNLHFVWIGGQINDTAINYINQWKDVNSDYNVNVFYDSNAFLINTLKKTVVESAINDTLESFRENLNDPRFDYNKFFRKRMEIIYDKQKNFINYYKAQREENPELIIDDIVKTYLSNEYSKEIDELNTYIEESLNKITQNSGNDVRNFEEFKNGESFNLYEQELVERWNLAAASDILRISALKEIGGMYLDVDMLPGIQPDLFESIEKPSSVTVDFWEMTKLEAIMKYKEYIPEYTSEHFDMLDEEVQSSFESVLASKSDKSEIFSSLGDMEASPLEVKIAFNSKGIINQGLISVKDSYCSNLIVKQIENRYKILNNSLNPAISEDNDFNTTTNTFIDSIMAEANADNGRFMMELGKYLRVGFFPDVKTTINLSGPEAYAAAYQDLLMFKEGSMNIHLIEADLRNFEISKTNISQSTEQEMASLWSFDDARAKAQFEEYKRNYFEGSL
Work on O=C(Nc1ccc(C(F)(F)F)cn1)c1ccc(CN2C(=O)c3ccc(Cl)cc3NC(=O)[C@H]2Cc2ccccn2)cc1-c1ccc2c(c1)OCO2 [Example 5f, (R)-2-(benzo[d][1,3]dioxol-5-yl)-4-((8-chloro-2,5-dioxo-3-(pyridin-2-ylmethyl)-2,3-dihydro-1H-benzo[e][1,4]diazepin-4(5H)-yl)methyl)-N-(5-(trifluoromethyl)pyridin-2-yl)benzamide] yielded a pIC50 of 6.00 to 7.00. COc1ccc(NC(=O)c2ccc(CN3C(=O)c4ccc(Cl)cc4NC(=O)[C@H]3Cc3cccnc3)cc2)nc1 [Example 5g, (R)-4-((8-chloro-2,5-dioxo-3-(pyridin-3-ylmethyl)-2,3-dihydro-1H-benzo[e][1,4]diazepin-4(5H)-yl)methyl)-N-(5-methoxypyridin-2-yl)benzamide] gave a pIC50 of over 7.00. Cc1cnc(NC(=O)c2ccc(CN3C(=O)c4ccc(Cl)cc4NC(=O)[C@H]3Cc3cccnc3)cc2)nc1 [Example 5h, (R)-4-((8-chloro-2,5-dioxo-3-(pyridin-3-ylmethyl)-2,3-dihydro-1H-benzo[e][1,4]diazepin-4(5H)-yl)methyl)-N-(5-methylpyrimidin-2-yl)benzamide] gave a pIC50 of over 7.00. In the case of Cc1ccnc(NC(=O)c2ccc(CN3C(=O)c4ccc(Cl)cc4NC(=O)[C@H]3Cc3cccnc3)cc2)n1 [Example 5i, (R)-4-((8-chloro-2,5-dioxo-3-(pyridin-3-ylmethyl)-2,3-dihydro-1H-benzo[e][1,4]diazepin-4(5H)-yl)methyl)-N-(4-methylpyrimidin-2-yl)benzamide], the pIC50 was over 7.00. With COc1cc(NC(=O)c2ccc(CN3C(=O)c4ccc(Cl)cc4NC(=O)[C@H]3Cc3cccnc3)cc2)ncn1 [Example 5j] the pIC50 was over 7.00. With CCc1ccc(NC(=O)c2ccc(CN3C(=O)c4ccc(Cl)cc4NC(=O)[C@H]3Cc3cccnc3)cc2)nc1 [Example 5k, (R)-4-((8-chloro-2,5-dioxo-3-(pyridin-3-ylmethyl)-2,3-dihydro-1H-benzo[e][1,4]diazepin-4(5H)-yl)methyl)-N-(5-ethylpyridin-2-yl)benzamide] the pIC50 was over 7.00. Cc1cnc(NC(=O)c2ccc(CN3C(=O)c4ccc(Cl)cc4NC(=O)[C@H]3Cc3ccccn3)cc2)nc1 [Example 5l, (R)-4-((8-chloro-2,5-dioxo-3-(pyridin-2-ylmethyl)-2,3-dihydro-1H-benzo[e][1,4]diazepin-4(5H)-yl)methyl)-N-(5-methylpyrimidin-2-yl)benzamide] was tested, and the pIC50 was over 7.00. For COc1cnc(NC(=O)c2ccc(CN3C(=O)c4ccc(Cl)cc4NC(=O)[C@H]3Cc3cccnc3)cc2)nc1 [Example 5m, (R)-4-((8-chloro-2,5-dioxo-3-(pyridin-3-ylmethyl)-2,3-dihydro-1H-benzo[e][1,4]diazepin-4(5H)-yl)methyl)-N-(5-methoxypyrimidin-2-yl)benzamide], the pIC50 was over 7.00. In the case of C[C@@H]1C(=O)Nc2cc(Cl)ccc2C(=O)N1Cc1ccc(C(=O)Nc2ncc3ccccc3n2)cc1 [Example 5n, (R)-4-((8-chloro-3-methyl-2,5-dioxo-2,3-dihydro-1H-benzo[e][1,4]diazepin-4(5H)-yl)methyl)-N-(quinazolin-2-yl)benzamide], the pIC50 was 6.00 to 7.00. For Cc1cncc(NC(=O)c2ccc(CN3C(=O)c4ccc(Cl)cc4NC(=O)[C@H]3C)cc2)n1 [Example 5o, (R)-4-((8-chloro-3-methyl-2,5-dioxo-2,3-dihydro-1H-benzo[e][1,4]diazepin-4(5H)-yl)methyl)-N-(6-methylpyrazin-2-yl)benzamide], the pIC50 was 6.00 to 7.00. C[C@@H]1C(=O)Nc2cc(Cl)ccc2C(=O)N1Cc1ccc(C(=O)Nc2nc3ccccc3[nH]2)cc1 [Example 5p, (R)-N-(1H-benzo[d]imidazol-2-yl)-4-((8-chloro-3-methyl-2,5-dioxo-2,3-dihydro-1H-benzo[e][1,4]diazepin-4(5H)-yl)methyl)benzamide] showed a pIC50 of 5.00 to 6.00. O=C(Nc1ccc(C(F)(F)F)cn1)c1ccc(CN2C(=O)c3ccc(Cl)cc3NC(=O)[C@H]2Cc2ccccn2)cc1 [Example 5q, (R)-4-((8-chloro-2,5-dioxo-3-(pyridin-2-ylmethyl)-2,3-dihydro-1H-benzo[e][1,4]diazepin-4(5H)-yl)methyl)-N-(5-(trifluoromethyl)pyridin-2-yl)benzamide] was tested, and the pIC50 was over 7.00. COc1cnc(NC(=O)c2ccc(CN3C(=O)c4ccc(Cl)cc4NC(=O)[C@H]3Cc3ccccn3)s2)nc1 [Example 5r, (R)-5-((8-chloro-2,5-dioxo-3-(pyridin-2-ylmethyl)-2,3-dihydro-1H-benzo[e][1,4]diazepin-4(5H)-yl)methyl)-N-(5-methoxypyrimidin-2-yl)thiophene-2-carboxamide] gave a pIC50 of 6.00 to 7.00. Cc1cnc(NC(=O)c2ccc(CN3C(=O)c4ccc(Cl)cc4NC(=O)[C@H]3Cc3ccccn3)s2)nc1 [Example 5s, (R)-5-((8-chloro-2,5-dioxo-3-(pyridin-2-ylmethyl)-2,3-dihydro-1H-benzo[e][1,4]diazepin-4(5H)-yl)methyl)-N-(5-methylpyrimidin-2-yl)thiophene-2-carboxamide] showed a pIC50 of 6.00 to 7.00. With Cc1cnc(NC(=O)c2ccc(CN3C(=O)c4ccc(Cl)cc4NC(=O)[C@H]3Cc3ccccn3)cc2)cn1 [Example 5t, (R)-4-((8-chloro-2,5-dioxo-3-(pyridin-2-ylmethyl)-2,3-dihydro-1H-benzo[e][1,4]diazepin-4(5H)-yl)methyl)-N-(5-methylpyrazin-2-yl)benzamide] the pIC50 was over 7.00. For O=C(Nc1cnccn1)c1ccc(CN2C(=O)c3ccc(Cl)cc3NC(=O)[C@H]2Cc2ccccn2)cc1 [Example 5u, (R)-4-((8-chloro-2,5-dioxo-3-(pyridin-2-ylmethyl)-2,3-dihydro-1H-benzo[e][1,4]diazepin-4(5H)-yl)methyl)-N-(pyrazin-2-yl)benzamide], the pIC50 was over 7.00. In the case of COc1cnc(NC(=O)c2ccc(CN3C(=O)c4ccc(Cl)cc4NC(=O)[C@H]3Cc3ccccn3)cc2)cn1 [Example 5v, (R)-4-((8-chloro-2,5-dioxo-3-(pyridin-2-ylmethyl)-2,3-dihydro-1H-benzo[e][1,4]diazepin-4(5H)-yl)methyl)-N-(5-methoxypyrazin-2-yl)benzamide], the pIC50 was over 7.00. With COc1ccc(NC(=O)c2ccc(CN3C(=O)c4ccc(Cl)cc4NC(=O)C3Cc3cnccn3)cc2)nc1 (centres unmarked) [Example 5w, 4-((8-chloro-2,5-dioxo-3-(pyrazin-2-ylmethyl)-2,3-dihydro-1H-benzo[e][1,4]diazepin-4(5H)-yl)methyl)-N-(5-methoxypyridin-2-yl)benzamide] the pIC50 was over 7.00. In the case of Cc1ccc(NC(=O)c2ccc(CN3C(=O)c4ccc(Cl)cc4NC(=O)C3Cc3cnccn3)cc2)nc1 (centres unmarked) [Example 5x, 4-((8-chloro-2,5-dioxo-3-(pyrazin-2-ylmethyl)-2,3-dihydro-1H-benzo[e][1,4]diazepin-4(5H)-yl)methyl)-N-(5-methylpyridin-2-yl)benzamide], the pIC50 was over 7.00. Work on COc1cnc(NC(=O)c2ccc(CN3C(=O)c4ccc(Cl)cc4NC(=O)[C@H]3Cc3cnccn3)cc2)nc1 [Example 5y, 4-((8-chloro-2,5-dioxo-3-(pyrazin-2-ylmethyl)-2,3-dihydro-1H-benzo[e][1,4]diazepin-4(5H)-yl)methyl)-N-(5-methoxypyrimidin-2-yl)benzamide] yielded a pIC50 of over 7.00. With Cc1cnc(NC(=O)c2ccc(CN3C(=O)c4ccc(Cl)cc4NC(=O)[C@H]3Cc3cnccn3)cc2)nc1 [Example 5z, 4-((8-chloro-2,5-dioxo-3-(pyrazin-2-ylmethyl)-2,3-dihydro-1H-benzo[e][1,4]diazepin-4(5H)-yl)methyl)-N-(5-methylpyrimidin-2-yl)benzamide] the pIC50 was over 7.00. For O=C(Nc1ccccn1)c1ccc(CN2C(=O)c3ccc(Cl)cc3NC(=O)[C@H]2Cc2ccccn2)cc1F [Example 6b, (R)-4-((8-chloro-2,5-dioxo-3-(pyridin-2-ylmethyl)-2,3-dihydro-1H-benzo[e][1,4]diazepin-4(5H)-yl)methyl)-2-fluoro-N-(pyridin-2-yl)benzamide], the pIC50 was over 7.00. In the case of O=C(Nc1ccc(F)cn1)c1ccc(CN2C(=O)c3ccc(Cl)cc3NC(=O)[C@H]2Cc2ccccn2)cc1F [Example 6c, (R)-4-((8-chloro-2,5-dioxo-3-(pyridin-2-ylmethyl)-2,3-dihydro-1H-benzo[e][1,4]diazepin-4(5H)-yl)methyl)-2-fluoro-N-(5-fluoropyridin-2-yl)benzamide], the pIC50 was over 7.00. Compound Cc1ccc(NC(=O)c2ccc(CN3C(=O)c4ccc(Cl)cc4NC(=O)[C@H]3Cc3ccccn3)cc2F)nc1 [Example 6d, (R)-4-((8-chloro-2,5-dioxo-3-(pyridin-2-ylmethyl)-2,3-dihydro-1H-benzo[e][1,4]diazepin-4(5H)-yl)methyl)-2-fluoro-N-(5-methylpyridin-2-yl)benzamide] has a pIC50 of over 7.00. For O=C1Nc2cc(Cl)ccc2C(=O)N(Cc2ccc(C(=O)N3CCc4cccnc43)c(F)c2)[C@@H]1Cc1ccccn1 [Example 6e, (R)-8-chloro-4-(4-(2,3-dihydro-1H-pyrrolo[2,3-b]pyridine-1-carbonyl)-3-fluorobenzyl)-3-(pyridin-2-ylmethyl)-3,4-dihydro-1H-benzo[e][1,4]diazepine-2,5-dione], the pIC50 was 6.00 to 7.00. Compound Cc1cnc2c(c1)CCN2C(=O)c1ccc(CN2C(=O)c3ccc(Cl)cc3NC(=O)[C@H]2Cc2ccccn2)cc1F [Example 6f, (R)-8-chloro-4-(3-fluoro-4-(5-methyl-2,3-dihydro-1H-pyrrolo[2,3-b]pyridine-1-carbonyl)benzyl)-3-(pyridin-2-ylmethyl)-3,4-dihydro-1H-benzo[e][1,4]diazepine-2,5-dione] has a pIC50 of over 7.00. O=C(O)c1ccc(CN2C(=O)c3ccc(Cl)cc3NC(=O)[C@H]2Cc2ccccn2)cc1Cl [Example 7a, (R)-2-Chloro-4-((8-chloro-2,5-dioxo-3-(pyridin-2-ylmethyl)-2,3-dihydro-1H-benzo[e][1,4]diazepin-4(5H)-yl)methyl)benzoic Acid] showed a pIC50 of 6.00 to 7.00. Cc1cc(CN2C(=O)c3ccc(Cl)cc3NC(=O)[C@H]2Cc2ccccn2)ccc1C(=O)O [Example 7b, (R)-4-((8-chloro-2,5-dioxo-3-(pyridin-2-ylmethyl)-2,3-dihydro-1H-benzo[e][1,4]diazepin-4(5H)-yl)methyl)-2-methylbenzoic acid] was tested, and the pIC50 was 6.00 to 7.00. In the case of O=C(O)c1c(Cl)cc(CN2C(=O)c3ccc(Cl)cc3NC(=O)[C@H]2Cc2ccccn2)cc1Cl [Example 7c, (R)-2,6-dichloro-4-((8-chloro-2,5-dioxo-3-(pyridin-2-ylmethyl)-2,3-dihydro-1H-benzo[e][1,4]diazepin-4(5H)-yl)methyl)benzoic acid], the pIC50 was 5.00 to 6.00.
